Here are results for nine compounds from PubChem BioAssay (NCI).

Each structure is given as a SMILES string. Values joined by “and” are separate entries in the source; they are usually repeats but may differ in a detail not shown here. Equal values may be shown once.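 In this assay, cells in 96-well plates receive the compound at five concentrations for 48 hours. Endpoints are linearly interpolated between the surrounding concentrations. GI50 = concentration required for 50% inhibition of growth. TGI: concentration producing complete growth inhibition.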

Test systems include OVCAR-5 ovarian; K-562 leukemia; RPMI-8226 leukemia; SF-295 CNS; SF-539 CNS; IGROV1 ovarian; CAKI-1 renal; A498 renal; SR leukemia; HOP-92 NSCLC.
Common to all, as to assay: growth of human tumour cells (NCI), 48 h

For the compound `Oc1cn(-c2ccc(Cl)cc2)nc1-c1n[nH]c(=S)n1-c1ccc(F)cc1`, the GI50 in the assay on OVCAR-5 ovarian was 32 µM; in the assay with K-562 leukemia, 12600 nM; with RPMI-8226 leukemia it was 22200 nM; with SF-295 CNS, 14.8 µM; in the assay on SF-539 CNS, 15100 nM; with IGROV1 ovarian it was 7120 nM. Also, the GI50 with CAKI-1 renal is 40.5 µM; in the assay on A498 renal, 34.6 µM; with HOP-92 NSCLC, 32.2 µM. The TGI was over 100 µM in the assay on OVCAR-5 ovarian; over 100 µM in the assay with K-562 leukemia; over 100 µM with RPMI-8226 leukemia; 66.9 µM with SF-295 CNS; 34.9 µM in the assay on SF-539 CNS; 24.1 µM in the assay with IGROV1 ovarian. For the same compound, the TGI in the assay with CAKI-1 renal is over 100 µM; with A498 renal it was 76.5 µM; in the assay with SR leukemia, over 100 µM; with HOP-92 NSCLC, over 100 µM.
For the compound `O=C1C2C(C(=O)N1Cc1ccccc1)N(Cc1ccccc1)C(=O)N2Cc1ccccc1` (centres undefined), the TGI with OVCAR-5 ovarian, in the assay on K-562 leukemia, in the assay with RPMI-8226 leukemia, with SF-295 CNS, in the assay on SF-539 CNS and in the assay on IGROV1 ovarian was over 100 µM throughout. Further, the TGI in the assay with CAKI-1 renal, in the assay on A498 renal, with SR leukemia and in the assay on HOP-92 NSCLC was over 100 µM throughout.
Turning to `CCCCCCCCCCCCCC(=O)O[C@H]1CC[C@H](NC(=O)[C@H](OC)[C@H](O)[C@@H](O)[C@H](O)/C=C/C(C)C)C(=O)N(C)C1`, the GI50 with OVCAR-5 ovarian was over 23.8 µM; in the assay on K-562 leukemia it was 2.38 nM; with RPMI-8226 leukemia, 3.92 nM; in the assay on SF-295 CNS, 0.00238 µM; with SF-539 CNS, 12.6 nM; in the assay on IGROV1 ovarian, 3.77 nM. For the same compound, in the assay with A498 renal, the GI50 is 0.453 µM. Also, the TGI is 15 µM and > 23.8 µM with OVCAR-5 ovarian; 15 µM and > 23.8 µM with K-562 leukemia; 15 µM and 8.02 µM with RPMI-8226 leukemia; 15 µM and 3.03 µM with SF-295 CNS; 15 µM and > 23.8 µM in the assay on SF-539 CNS; 15 µM and > 23.8 µM with IGROV1 ovarian. In addition, the TGI was 0.668 µM in the assay on CAKI-1 renal, over 23.8 µM with A498 renal, 2.46 µM in the assay with SR leukemia and 0.0541 µM in the assay with HOP-92 NSCLC.
`N=C(N)n1cc(/C=N/N=C(N)N)cn1`: the TGI in the assay with OVCAR-5 ovarian, in the assay with K-562 leukemia, in the assay on RPMI-8226 leukemia, with SF-295 CNS, with SF-539 CNS and in the assay with IGROV1 ovarian was over 100 µM in each case. In addition, the TGI in the assay on CAKI-1 renal, with A498 renal, with SR leukemia and in the assay with HOP-92 NSCLC was over 100 µM each time.
As to `O=C1OC(=O)c2c1nc1ccccc1c2-c1ccccc1`, the TGI in the assay on OVCAR-5 ovarian, in the assay on K-562 leukemia, in the assay on RPMI-8226 leukemia, in the assay on SF-295 CNS, with SF-539 CNS and in the assay with IGROV1 ovarian was over 100 µM throughout. Besides, the TGI in the assay on CAKI-1 renal, in the assay on A498 renal, with SR leukemia and in the assay with HOP-92 NSCLC was over 100 µM in each case.
Regarding `O=[N+]([O-])c1cccnc1S(=O)(=O)c1ccccc1`, the TGI is 29.4 µM in the assay on OVCAR-5 ovarian; over 43.8 µM in the assay with K-562 leukemia; 36.4 µM with RPMI-8226 leukemia; 32.5 µM in the assay on SF-295 CNS; 24 µM in the assay on SF-539 CNS; 20.3 µM in the assay on IGROV1 ovarian. Moreover, the TGI in the assay on CAKI-1 renal is 6.98 µM; with A498 renal it was 36.6 µM; in the assay with SR leukemia, over 100 µM; in the assay on HOP-92 NSCLC, 3.64 µM.
`COc1cccc(-c2cc(=O)c3cc(N4CCN(C)CC4)ccc3[nH]2)c1`: the GI50 with OVCAR-5 ovarian is 6.24 µM; in the assay with K-562 leukemia, 492 nM; in the assay on RPMI-8226 leukemia, 1930 nM; with SF-295 CNS, 8.34 µM; with SF-539 CNS, 1500 nM; with IGROV1 ovarian, 2860 nM. Besides, the GI50 in the assay on CAKI-1 renal was 0.722 µM; with HOP-92 NSCLC, 3.1 µM. The TGI in the assay on OVCAR-5 ovarian was over 100 µM; in the assay on K-562 leukemia, 6.22 µM; with RPMI-8226 leukemia it was 6.11 µM; with SF-539 CNS it was 2.36 µM and 7.13 µM; in the assay with IGROV1 ovarian, over 100 µM; in the assay with CAKI-1 renal it was over 100 µM. In addition, the TGI in the assay with A498 renal is 5.32 µM; with SR leukemia it was 2.49 µM.
As to `C/C(=N\NC(=S)N1CCC1)c1ccccn1`, the GI50 in the assay with OVCAR-5 ovarian is 0.00689 µM; in the assay on K-562 leukemia, 3.93 nM; with RPMI-8226 leukemia, 4.99 nM; in the assay on SF-295 CNS it was 0.0285 µM; in the assay with SF-539 CNS, 62.9 nM; with IGROV1 ovarian, 7.98 nM. Moreover, the GI50 is 0.00819 µM in the assay on SR leukemia and 0.0351 µM with HOP-92 NSCLC. Also, the TGI in the assay with OVCAR-5 ovarian is 49.9 µM; with K-562 leukemia it was over 100 µM; in the assay with RPMI-8226 leukemia it was over 63.5 µM; in the assay with SF-295 CNS, 49.2 µM; with SF-539 CNS, 5.31 µM; with IGROV1 ovarian it was 22.7 µM. Also, the TGI in the assay with CAKI-1 renal was 75.3 µM; with A498 renal, 10.6 µM; in the assay on HOP-92 NSCLC it was 47.9 µM.
For `CN(C)CCNC(=O)Nc1ccc(N(C)c2ccnc(Nc3ccc(CS(C)(=O)=O)cc3)n2)cc1`, the GI50 was over 25 µM in the assay with OVCAR-5 ovarian; over 25000 nM in the assay on K-562 leukemia; over 25000 nM in the assay with RPMI-8226 leukemia; over 25 µM with SF-295 CNS; over 20900 nM in the assay on SF-539 CNS; over 25000 nM in the assay on IGROV1 ovarian. Also, the GI50 with CAKI-1 renal was over 25 µM; in the assay on A498 renal it was over 25 µM; in the assay on SR leukemia, 14.8 µM; with HOP-92 NSCLC it was 6.99 µM. The TGI with OVCAR-5 ovarian, with K-562 leukemia, in the assay on RPMI-8226 leukemia, in the assay with SF-295 CNS, in the assay on SF-539 CNS and in the assay on IGROV1 ovarian was over 25 µM throughout. The TGI with CAKI-1 renal, with A498 renal, in the assay on SR leukemia and in the assay on HOP-92 NSCLC was over 25 µM each time.
